Experimental data taken from article PMC11056980 (Journal of medicinal chemistry, 2024).
“Also recorded” adds a separate entry of the source. Residues, ends and D or L forms follow the SMILES beside them. *: point of attachment. Cbz = O=C(OCc1ccccc1)*

Legend:
[1] = molecular target: M^Pro-eGFP fusion protein (Severe acute respiratory syndrome coronavirus 2, UniProt P0DTD1, Q3569G); format: cell-based, SARS-CoV-2
[2] = test system: SARS-CoV-2 delta variant hCoV-19/USA/MD-HP05647/2021; format: cell-based
[3] = test system: recombinant SARS-CoV-2 Δ3678 mGFP containing an NSP5 E166A mutation; format: cell-based
M^Pro = M^Pro (Severe acute respiratory syndrome coronavirus 2, UniProt P0DTD1); format: cell-based, SARS-CoV-2
[4] = test system: recombinant SARS-CoV-2 Δ3678 mGFP containing an NSP5 E166A mutation; details: cited from earlier work

SMILES: C[C@@H](OC(C)(C)C)[C@H](NC(=O)OCc1cccc(OCCCCCCOc2cccc3c2C(=O)N(C2CCC(=O)NC2=O)C3=O)c1)C(=O)N[C@@H](CC1CCCCC1)C(=O)N[C@H](C=O)C[C@@H]1CCNC1=O (some centres unmarked) [MPD2]
- M^Pro degradation in CRBN knockout vs wildtype CRBN cells [1]: significant rescue of intracellular M^Pro
- M^Pro degradation, time course [1]: significant degradation; also recorded: nearly maximal degradation
- antiviral synergy with nirmatrelvir [2]: synergistic effects
- greater potency against NSP5 E166A mutant virus compared to wild-type Δ3678 mGFP [3]: 5 fold
- M^Pro degradation during SARS-CoV-2 infection (M^Pro): most potent degrader

SMILES: CC(C)C[C@@H](C=O)NC(=O)[C@H](CC(C)C)NC(=O)[C@H](CC(C)C)NC(=O)OCc1ccccc1 [MG132, reference compound] (Cbz-Leu-Leu-Leu-aldehyde)
- Effect of proteasome inhibitor pretreatment on MPD2-induced M^Pro degradation [1]: effectively rescued

SMILES: CC(C)(C)[C@H](NC(=O)C(F)(F)F)C(=O)N1C[C@H]2[C@@H]([C@H]1C(=O)N[C@H](C#N)C[C@@H]1CCNC1=O)C2(C)C [nirmatrelvir]
- resistance conferred by NSP5 E166A mutation [4]: 10 fold

SMILES: C[C@@H](OC(C)(C)C)[C@H](NC(=O)OCc1ccccc1)C(=O)N[C@@H](CC1CCCCC1)C(=O)N[C@H](C=O)C[C@@H]1CCNC1=O [MPI8, reference compound]
- Effect of pretreatment on MPD2-induced M^Pro degradation (competition) [1]: completely blocked
